A value given as a limit tells only on which side of the number the result lay.

Chain of PIK3CA (human) (P42336 whole entry, looked up): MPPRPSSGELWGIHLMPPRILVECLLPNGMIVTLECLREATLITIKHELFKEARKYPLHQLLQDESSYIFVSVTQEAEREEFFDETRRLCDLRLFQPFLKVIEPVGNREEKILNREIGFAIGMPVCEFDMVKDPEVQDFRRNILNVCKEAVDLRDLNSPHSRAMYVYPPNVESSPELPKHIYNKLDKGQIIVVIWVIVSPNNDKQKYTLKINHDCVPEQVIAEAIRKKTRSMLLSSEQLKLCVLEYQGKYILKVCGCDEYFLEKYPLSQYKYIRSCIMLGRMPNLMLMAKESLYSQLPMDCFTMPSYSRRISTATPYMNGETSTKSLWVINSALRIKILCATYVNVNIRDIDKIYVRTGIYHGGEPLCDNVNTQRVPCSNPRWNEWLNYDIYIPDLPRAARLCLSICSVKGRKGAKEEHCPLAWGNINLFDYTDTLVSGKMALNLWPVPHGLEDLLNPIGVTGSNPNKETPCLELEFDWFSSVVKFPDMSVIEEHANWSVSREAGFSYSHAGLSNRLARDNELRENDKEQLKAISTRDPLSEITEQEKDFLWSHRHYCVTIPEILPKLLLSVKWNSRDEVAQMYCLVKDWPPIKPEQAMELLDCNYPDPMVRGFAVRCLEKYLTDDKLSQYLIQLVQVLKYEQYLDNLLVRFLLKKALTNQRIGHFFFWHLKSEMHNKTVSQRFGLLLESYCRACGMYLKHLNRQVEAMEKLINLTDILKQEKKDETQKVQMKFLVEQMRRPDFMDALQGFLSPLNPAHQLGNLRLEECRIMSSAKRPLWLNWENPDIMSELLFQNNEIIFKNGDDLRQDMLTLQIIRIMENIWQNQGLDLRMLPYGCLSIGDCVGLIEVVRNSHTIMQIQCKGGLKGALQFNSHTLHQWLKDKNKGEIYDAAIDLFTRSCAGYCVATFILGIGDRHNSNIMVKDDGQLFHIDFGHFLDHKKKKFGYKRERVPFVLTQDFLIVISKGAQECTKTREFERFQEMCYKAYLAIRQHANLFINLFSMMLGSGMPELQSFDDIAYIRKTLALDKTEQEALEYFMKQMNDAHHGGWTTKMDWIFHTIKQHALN

The first test has as its target PIK3CA (human) (UniProt P42336). Description: Assessment of PIK3CA Kinase Activity Using One Step Solid Phase Assay.
As for `COc1cccc(-c2nc(N3CCOCC3)nc(Nc3cccnc3)c2C(=O)O)c1`, the concentration for half-maximal inhibition (IC50) was < 20 µM.

`CCOc1ccc(Nc2cc(-c3cccc(O)c3)nc(N3CCOCC3)n2)cc1`: the IC50 is < 20 µM.

Regarding `Oc1cccc(-c2cc(Nc3ccc4c(c3)OCCCO4)nc(N3CCOCC3)n2)c1`, the half-inhibitory concentration (IC50) was < 20 µM.

Turning to `CN1CCCN(c2cc(-c3cccc(O)c3)nc(N3CCOCC3)n2)CC1`, the IC50 is < 20 µM.

Regarding `Oc1cccc(-c2cc(NCCCn3ccnc3)nc(N3CCOCC3)n2)c1`, the IC50 was < 20 µM.

Consider `COc1cccc(Nc2cc(-c3cccc(O)c3)nc(N3CCOCC3)n2)c1OC`, for which the IC50 was < 20 µM.

Consider `CCOc1ccc(OCC)c(Nc2cc(-c3cccc(O)c3)nc(N3CCOCC3)n2)c1`, for which the IC50 was < 20 µM.

As for `Oc1cccc(-c2cc(Nc3ccccc3O)nc(N3CCOCC3)n2)c1`, the 50% inhibitory concentration (IC50) is < 20 µM.

For the compound `COc1cc(Nc2ccccc2)ccc1Nc1cc(-c2cccc(O)c2)nc(N2CCOCC2)n1`, the IC50 is < 20 µM.

Take `COc1ccccc1Nc1cc(-c2cccc(O)c2)nc(N2CCOCC2)n1`: the half-inhibitory concentration (IC50) is < 20 µM.

As for `Oc1cccc(-c2cc(Nc3cccc(Oc4ccccc4)c3)nc(N3CCOCC3)n2)c1`, the IC50 was < 20 µM.

Regarding `Oc1cccc(-c2cc(N3CCN(Cc4ccc5c(c4)OCO5)CC3)nc(N3CCOCC3)n2)c1`, the concentration for half-maximal inhibition (IC50) was < 20 µM.

With `Oc1cccc(-c2cc(Nc3cc(-c4ccccc4)ccc3O)nc(N3CCOCC3)n2)c1`, the IC50 was < 20 µM.

As to `COc1cccc(Nc2cc(-c3cccc(O)c3)nc(N3CCOCC3)n2)c1`, the IC50 is < 20 µM.

As for `COc1ccc(Nc2cc(-c3cccc(O)c3)nc(N3CCOCC3)n2)cc1OC1CCCC1`, the concentration for half-maximal inhibition (IC50) was < 20 µM.

For the compound `Cc1ccc(CN(Cc2cccnc2)c2cc(-c3cccc(O)c3)nc(N3CCOCC3)n2)cc1`, the half-inhibitory concentration (IC50) was < 20 µM.

Turning to `N[C@@H]1CCCC[C@H]1Nc1cc(-c2cccc(O)c2)nc(N2CCOCC2)n1`, the IC50 is < 20 µM.

Turning to `COc1ccc(Nc2cc(-c3ccccc3)nc(N3CCOCC3)n2)cc1O`, the IC50 was < 20 µM.

Turning to `NC1CCCC(Nc2cc(-c3cccc(O)c3)nc(N3CCOCC3)n2)C1` (configuration not stated), the concentration for half-maximal inhibition (IC50) is < 20 µM.

Take `COc1cccc(C)c1Nc1cc(-c2cccc(O)c2)nc(N2CCOCC2)n1`: the half-maximal inhibitory concentration (IC50) is < 20 µM.

`Oc1cccc(-c2cc(N3CCN(CCc4ccccc4)CC3)nc(N3CCOCC3)n2)c1`: the half-maximal inhibitory concentration (IC50) is < 20 µM.

Turning to `COc1ccc(Nc2cc(-c3cccc(O)c3)nc(N3CCOCC3)n2)c(OC)c1`, the IC50 is < 20 µM.

Regarding `Oc1cccc(-c2cc(N3CCN(c4cccc(Cl)c4)CC3)nc(N3CCOCC3)n2)c1`, the IC50 was < 20 µM.

For `Oc1cccc(-c2cc(Nc3ccc(Oc4ccccc4)cc3)nc(N3CCOCC3)n2)c1`, the IC50 was < 20 µM.

Regarding `CCn1c(C)nc2cc(Nc3cc(-c4cccc(O)c4)nc(N4CCOCC4)n3)ccc21`, the IC50 is < 20 µM.

On to `O=C(CN1CCN(c2cc(-c3cccc(O)c3)nc(N3CCOCC3)n2)CC1)N1CCOCC1`, for which the concentration for half-maximal inhibition (IC50) is < 20 µM.

For `Oc1cccc(-c2cc(Nc3cc(Cl)ccc3O)nc(N3CCOCC3)n2)c1`, the IC50 was < 20 µM.

Consider `COc1ccc(OC)c(Nc2cc(-c3cccc(O)c3)nc(N3CCOCC3)n2)c1`, for which the IC50 was < 20 µM.

On to `Oc1cccc(-c2cc(NCCc3ccccn3)nc(N3CCOCC3)n2)c1`, for which the concentration for half-maximal inhibition (IC50) is < 20 µM.

As to `Oc1cccc(Nc2cc(-c3cccc(O)c3)nc(N3CCOCC3)n2)c1`, the IC50 was < 20 µM.

For `COc1c(Nc2cc(-c3cccc(O)c3)nc(N3CCOCC3)n2)ccc2c1oc1ccccc12`, the IC50 is < 20 µM.

For `Oc1cccc(-c2cc(N3CCC(O)CC3)nc(N3CCOCC3)n2)c1`, the IC50 was < 20 µM.

`Oc1cccc(-c2cc(Nc3cccc(OCc4ccccc4)c3)nc(N3CCOCC3)n2)c1`: the concentration for half-maximal inhibition (IC50) is < 20 µM.

Consider `Cc1ccc(CN(Cc2ccccn2)c2cc(-c3cccc(O)c3)nc(N3CCOCC3)n2)cc1`, for which the IC50 was < 20 µM.

Take `Oc1cccc(-c2cc(N(Cc3ccccc3)Cc3ccccc3)nc(N3CCOCC3)n2)c1`: the IC50 is < 20 µM.

Regarding `Fc1ccccc1-c1cc(Nc2ccc3[nH]ncc3c2)nc(N2CCOCC2)n1`, the half-inhibitory concentration (IC50) is < 20 µM.

As to `Oc1ccc(Nc2cc(-c3cccc(O)c3)nc(N3CCOCC3)n2)cc1`, the half-inhibitory concentration (IC50) was < 20 µM.

Consider `Oc1cccc(-c2cc(NCCc3cccnc3)nc(N3CCOCC3)n2)c1`, for which the IC50 is < 20 µM.

Take `CCCCOc1ccc(Nc2cc(-c3cccc(O)c3)nc(N3CCOCC3)n2)cc1`: the IC50 was < 20 µM.

`CCOc1ccccc1Nc1cc(-c2cccc(O)c2)nc(N2CCOCC2)n1`: the IC50 is < 20 µM.

For a further test the target is unchanged. Description: Assessment of PIK3CA Kinase Activity Using Homogenous Solution Phase Assay.
`COc1ccc(Nc2cc(-c3cccc(O)c3)nc(N3CCOCC3)n2)cc1OC`: the IC50 was < 20 µM.

As to `COc1cccc(-c2cc(Nc3cccnc3)nc(N3CCOCC3)n2)c1`, the half-inhibitory concentration (IC50) is < 20 µM.

`Nc1cc(-c2cccc(O)c2)nc(N2CCOCC2)n1`: the IC50 was < 20 µM.

With `Oc1cccc(-c2cc(Nc3cccc4cnccc34)nc(N3CCOCC3)n2)c1`, the half-maximal inhibitory concentration (IC50) was < 20 µM.

As to `O=[N+]([O-])c1cc(Nc2cc(-c3cccc(O)c3)nc(N3CCOCC3)n2)ccc1O`, the IC50 is < 20 µM.

For `Cc1ccc(Nc2cc(-c3cccc(O)c3)nc(N3CCOCC3)n2)cc1C`, the IC50 is < 20 µM.

`Oc1cccc(-c2cc(Nc3ccc4c(c3)OCO4)nc(N3CCOCC3)n2)c1`: the IC50 was < 20 µM.

For the compound `CC(=O)N1CCc2ccc(Nc3cc(-c4cccc(O)c4)nc(N4CCOCC4)n3)cc21`, the half-inhibitory concentration (IC50) is < 20 µM.

Consider `Oc1cccc(-c2cc(Nc3ccc(O)c(Cl)c3)nc(N3CCOCC3)n2)c1`, for which the IC50 is < 20 µM.

`Oc1cccc(-c2cc(Nc3ccc4c(c3)NCC4)nc(N3CCOCC3)n2)c1`: the IC50 is < 20 µM.

Turning to `COc1ccc(Nc2cc(-c3cccc(O)c3)nc(N3CCOCC3)n2)cc1O`, the IC50 was < 20 µM.

Turning to `Oc1cccc(-c2cc(Nc3cnccn3)nc(N3CCOCC3)n2)c1`, the 50% inhibitory concentration (IC50) was < 20 µM.

`Oc1cccc(-c2cc(Nc3ccc4cn[nH]c4c3)nc(N3CCOCC3)n2)c1`: the half-maximal inhibitory concentration (IC50) is < 20 µM.

In the case of `Oc1cccc(-c2cc(Nc3ccc4[nH]ncc4c3)nc(N3CCCNCC3)n2)c1`, the IC50 is < 20 µM.

For the compound `OCC1CCCN1c1cc(-c2cccc(O)c2)nc(N2CCOCC2)n1` (configuration not stated), the IC50 is < 20 µM.

Take `FC(F)(F)c1cccc(-c2cc(Nc3cccnc3)nc(N3CCOCC3)n2)c1`: the half-inhibitory concentration (IC50) is < 20 µM.

Regarding `Oc1cccc(-c2cc(N(Cc3ccccc3)Cc3nccs3)nc(N3CCOCC3)n2)c1`, the IC50 is < 20 µM.

Take `Fc1cccc(-c2cc(Nc3cccnc3)nc(N3CCOCC3)n2)c1`: the half-inhibitory concentration (IC50) was < 20 µM.

On to `Cc1ccc(O)cc1-c1cc(Nc2cccnc2)nc(N2CCOCC2)n1`, for which the IC50 is < 20 µM.

In the case of `Oc1cccc(-c2cc(Nc3ccc4c(c3)CCC4)nc(N3CCOCC3)n2)c1`, the IC50 is < 20 µM.

`COc1ccc(Nc2cc(-c3cccc(O)c3)nc(N3CCOCC3)n2)cc1F`: the 50% inhibitory concentration (IC50) was < 20 µM.

In the case of `Oc1cccc(-c2cc(Nc3ccc4ncccc4c3)nc(N3CCOCC3)n2)c1`, the IC50 is < 20 µM.

For the compound `Oc1cccc(-c2cc(Nc3ccccn3)nc(N3CCOCC3)n2)c1`, the 50% inhibitory concentration (IC50) was < 20 µM.

With `Oc1cccc(-c2cc(Nc3ccc4[nH]ncc4c3)nc(N3CCCCCC3)n2)c1`, the half-inhibitory concentration (IC50) is < 20 µM.

For the compound `Oc1cccc(-c2cc(Nc3ccc4c(c3)Cc3ccccc3-4)nc(N3CCOCC3)n2)c1`, the IC50 is < 20 µM.

For `Oc1cccc(-c2cc(Nc3ccc4nc[nH]c4c3)nc(N3CCOCC3)n2)c1`, the IC50 is < 20 µM.

Regarding `COc1ccc(Nc2cc(-c3cccc(O)c3)nc(N3CCOCC3)n2)cc1Cl`, the IC50 was < 20 µM.

Source of the values: the Kinase Knowledgebase extract (Sharma et al. 2016).
